The text below walks through data of patent publication US11369565B2, “Amino-pyrimidine skeletal muscle modulators” (Cytokinetics, Inc., priority 2010, dated 2022).

This experiment relates to rabbit skeletal myofibrils (approximately 90% fast fibers). The experiment can be described thus: Activation of fast skeletal myofibrils (PUMA coupled-enzyme ATPase assay at pCa25). It counts as biochemical. The conditions noted are these: concentration at which the compound increased the enzymatic activity by 40%; calcium at pCa25; PM12 buffer pH 6.8. Summed up:
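In pH 6.8 PM12 buffer (12 mM Pipes, 2 mM MgCl2, 1 mM DTT), ADP from myosin regenerated via pyruvate kinase/lactate dehydrogenase, with absorbance change at 340 nm from NADH oxidation as read-out. Calcium set at pCa25; Triton-washed rabbit skeletal myofibrils (about 90% fast fibres) used.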
On to `N#Cc1cc(-c2cnc(NC3(c4ncccc4F)CCC3)nc2)ccn1` [4-(2-{[(3-fluoro-2-pyridyl)cyclobutyl]amino}pyrimidin-5-yl)pyridine-2-carbonitrile], for which the “Mean AC1.4” value was “D (D=>20 uM)”.

Take `COC(=O)c1ccn(-c2cnc(NC[C@]3(c4ncccc4F)C[C@H](F)C3)nc2)c1` [methyl 1-[2-({[3-fluoro-1-(3-fluoro(2-pyridyl))cyclobutyl]methyl}amino)pyrimidin-5-yl]pyrrole-3-carboxylate]: the “Mean AC1.4” value is “D (D=>20 uM)”.

For `CNC(=O)c1cccc(-c2cnc(NC[C@]3(c4ncccc4F)C[C@H](F)C3)nc2)c1` [{3-[2-({[3-fluoro-1-(3-fluoro(2-pyridyl))cyclobutyl]methyl}amino)pyrimidin-5-yl]phenyl}-N-methylcarboxamide], the “Mean AC1.4” value is “B (B=1-10 uM)”.

In the case of `NC(=O)c1csc(-c2cnc(NCC3(c4ncccc4F)CCC3)nc2)n1` [2-[2-({[(3-fluoro-2-pyridyl)cyclobutyl]methyl}amino)pyrimidin-5-yl]-1,3-thiazole-4-carboxamide], the “Mean AC1.4” value is on record as “B (B=1-10 uM)”.

Regarding `CNc1nc(NC[C@]2(c3ncccc3F)C[C@H](F)C2)ncc1-c1ccccc1` [{[3-fluoro-1-(3-fluoro(2-pyridyl))cyclobutyl]methyl}[4-(methylamino)-5-phenylpyrimidin-2-yl]amine], the “Mean AC1.4” value is given as “D (D=>20 uM)”.

`CCOC(=O)c1cc2cnc(NCC3(c4ncccc4F)CCC3)nc2s1` [ethyl 2-({[(3-fluoro-2-pyridyl)cyclobutyl]methyl}amino) thiopheno[2,3-d]pyrimidine-6-carboxylate]: the “Mean AC1.4” value is listed as “D (D=>20 uM)”.

In the case of `NC(=O)c1cc2cnc(NCC3(c4ncccc4F)CCC3)nc2s1` [2-({[(3-fluoro-2-pyridyl)cyclobutyl]methyl}amino) thiopheno[2,3-d]pyrimidine-6-carboxamide], the “Mean AC1.4” value was “C (C=10-20 uM)”.

For the molecule `O=c1cc(-c2cnc(NC[C@]3(c4ncccc4F)C[C@H](F)C3)nc2)[nH]c(=O)[nH]1` [6-[2-({[3-fluoro-1-(3-fluoro(2-pyridyl))cyclobutyl]methyl}amino)pyrimidin-5-yl]-1,3-dihydropyrimidine-2,4-dione], the “Mean AC1.4” value is reported as “B (B=1-10 uM)”.

Take `CC(C)(Nc1ncc(-c2nc(CNC(=O)[C@@H]3CCCN3)cs2)cn1)c1ncccc1F` [((2S)pyrrolidin-2-yl)-N-{[2-(2-{[1-(3-fluoro(2-pyridyl))-isopropyl]amino}pyrimidin-5-yl)(1,3-thiazol-4-yl)]methyl}carboxamide]: the “Mean AC1.4” value is listed as “D (D=>20 uM)”.

Turning to `Oc1ncc(-c2cnc(NC[C@]3(c4ncccc4F)C[C@H](F)C3)nc2)cn1` [5-[2-({[3-fluoro-1-(3-fluoro(2-pyridyl))cyclobutyl]methyl}amino)pyrimidin-5-yl]pyrimidin-2-ol], the “Mean AC1.4” value was “D (D=>20 uM)”.

`CC(C)(C)OC(=O)NCC(=O)NCc1cnn(-c2cnc(NC(C)(C)c3ncccc3Cl)nc2)c1` [2-[(tert-butoxy)carbonylamino]-N-{[1-(2-{[1-(3-chloro(2-pyridyl))-isopropyl]amino}pyrimidin-5-yl)pyrazol-4-yl]methyl}acetamide]: the “Mean AC1.4” value is given as “D (D=>20 uM)”.

For the molecule `CC(C)(Nc1ncc(-c2ncc(CNC(=O)[C@H]3CCCN3)s2)cn1)c1ncccc1F` [((2R)pyrrolidin1-2-yl)-N-{[2-(2-{[1-(3-fluoro(2-pyridyl))-isopropyl]amino}pyrimidin-5-yl)(1,3-thiazol-5-yl)]methyl}carboxamide], the “Mean AC1.4” value is “D (D=>20 uM)”.

`CC(C)(Nc1ncc(-n2cc(CNC(=O)CN)cn2)cn1)c1ncccc1Cl` [2-amino-N-{[1-(2-{[1-(3-chloro(2-pyridyl))-isopropyl]amino)pyrimidin-5-yl)pyrazol-4-yl]methyl]acetamide]: the “Mean AC1.4” value is listed as “B (B=1-10 uM)”.

On to `CC(=O)NCCNC(=O)c1cnc(NCC2(c3ncccc3F)CCC2)nc1` [N-(2-{[2-({[(3-fluoro-2-pyridyl)cyclobutyl]methyl}amino)pyrimidin-5-yl]carbonylamino}ethyl)acetamide], for which the “Mean AC1.4” value was “D (D=>20 uM)”.

`CC(C)(CNc1ncc(-c2ccc(C(N)=O)cc2)cn1)c1ccc(F)cc1` [4-(2-{[2-(4-fluorophenyl)-2-methylpropyl]amino}pyrimidin-5-yl)benzamide]: the “Mean AC1.4” value was “B (B=1-10 uM)”.

Take `NC(=O)Cc1ccccc1-c1cnc(NC[C@]2(c3ncccc3F)C[C@H](F)C2)nc1` [2-{2-[2-({[3-fluoro-1-(3-fluoro(2-pyridyl))cyclobutyl)]methyl}amino)pyrimidin-5-yl]phenyl)acetamide]: the “Mean AC1.4” value was “C (C=10-20 uM)”.

For `NC(=O)c1cnc(NCC2(c3ncccc3F)CCC2)nc1` [2-({[(3-fluoro-2-pyridyl)cyclobutyl]methyl}amino) pyrimidine-5-carboxamide], the “Mean AC1.4” value is on record as “D (D=>20 uM)”.

Take `CS(=O)(=O)NCCNC(=O)c1cnc(NCC2(c3ncccc3F)CCC2)nc1` [[2-({[(3-fluoro(2-pyridyl))cyclobutyl]methyl}amino)pyrimidin-5-yl]-N-[(methylsulfonyl)amino]ethyl} carboxamide]: the “Mean AC1.4” value is on record as “D (D=>20 uM)”.

As to `O=C(Nc1ccc(F)cc1)c1cnc(NCC2(c3ncccc3F)CCC2)nc1` [[2-({[(3-fluoro(2-pyridyl))cyclobutyl]methyl}amino)pyrimidin-5-yl]-N-(4-fluorophenyl)carboxamide], the “Mean AC1.4” value is “D (D=>20 uM)”.

Regarding `Oc1ccc(-c2cnc(NC[C@]3(c4ncccc4F)C[C@H](F)C3)nc2)nc1` [6-[2-({[3-fluoro-1-(3-fluoro(2-pyridyl))cyclobutyl]methyl}amino)pyrimidin-5-yl]pyridin-3-ol], the “Mean AC1.4” value is given as “B (B=1-10 uM)”.

For the molecule `CC(C)(CNC(=O)c1cnc(NCC(C)(C)c2ccc(F)cc2)nc1)c1ccc(F)cc1` [N-[2-(4-fluorophenyl)-2-methylpropyl](2-{[2-(4-fluorophenyl)-2-methylpropyl]amino}pyrimidin-5-yl)carboxamide], the “Mean AC1.4” value is on record as “D (D=>20 uM)”.

For the molecule `COc1cccnc1C(C)(C)Nc1ncc(-c2cc(C(N)=O)ccc2F)cn1` [4-fluoro-3-(2-{[1-(3-methoxy(2-pyridyl))-isopropyl]amino}pyrimidin-5-yl)benzamide], the “Mean AC1.4” value is “C (C=10-20 uM)”.
